Patent US20150329558A1, “FUSED HETEROCYCLIC COMPOUNDS AS ION CHANNEL MODULATORS” (Gilead Sciences, Inc., priority 2011, published 2015)
Where two headings read alike, the source gives them in different places.

Assays:
[1] = Microsomal stability assay, human; format: in vitro ADME; conditions: metabolic stability, human liver microsomes 0.5 mg/mL, substrate 3 uM
Summary of the method: (§1)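 Liver microsomes at 0.5 mg/mL protein in 100 mM KPO4 buffer, incubated with 3 uM compound and NADPH-regenerating system, run in duplicate. Samples taken at 2, 12, 25, 45 and 65 min and quenched in MeOH/ACN/water before analysis.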

[2] = target: hERG potassium channel (Homo sapiens, UniProt Q12809); assay: hERG screening assay (PatchXpress, CHO cells); format: cell-based; conditions: % inhibition at 1 μM
hERG potassium channel, sequence (Q12809 whole entry): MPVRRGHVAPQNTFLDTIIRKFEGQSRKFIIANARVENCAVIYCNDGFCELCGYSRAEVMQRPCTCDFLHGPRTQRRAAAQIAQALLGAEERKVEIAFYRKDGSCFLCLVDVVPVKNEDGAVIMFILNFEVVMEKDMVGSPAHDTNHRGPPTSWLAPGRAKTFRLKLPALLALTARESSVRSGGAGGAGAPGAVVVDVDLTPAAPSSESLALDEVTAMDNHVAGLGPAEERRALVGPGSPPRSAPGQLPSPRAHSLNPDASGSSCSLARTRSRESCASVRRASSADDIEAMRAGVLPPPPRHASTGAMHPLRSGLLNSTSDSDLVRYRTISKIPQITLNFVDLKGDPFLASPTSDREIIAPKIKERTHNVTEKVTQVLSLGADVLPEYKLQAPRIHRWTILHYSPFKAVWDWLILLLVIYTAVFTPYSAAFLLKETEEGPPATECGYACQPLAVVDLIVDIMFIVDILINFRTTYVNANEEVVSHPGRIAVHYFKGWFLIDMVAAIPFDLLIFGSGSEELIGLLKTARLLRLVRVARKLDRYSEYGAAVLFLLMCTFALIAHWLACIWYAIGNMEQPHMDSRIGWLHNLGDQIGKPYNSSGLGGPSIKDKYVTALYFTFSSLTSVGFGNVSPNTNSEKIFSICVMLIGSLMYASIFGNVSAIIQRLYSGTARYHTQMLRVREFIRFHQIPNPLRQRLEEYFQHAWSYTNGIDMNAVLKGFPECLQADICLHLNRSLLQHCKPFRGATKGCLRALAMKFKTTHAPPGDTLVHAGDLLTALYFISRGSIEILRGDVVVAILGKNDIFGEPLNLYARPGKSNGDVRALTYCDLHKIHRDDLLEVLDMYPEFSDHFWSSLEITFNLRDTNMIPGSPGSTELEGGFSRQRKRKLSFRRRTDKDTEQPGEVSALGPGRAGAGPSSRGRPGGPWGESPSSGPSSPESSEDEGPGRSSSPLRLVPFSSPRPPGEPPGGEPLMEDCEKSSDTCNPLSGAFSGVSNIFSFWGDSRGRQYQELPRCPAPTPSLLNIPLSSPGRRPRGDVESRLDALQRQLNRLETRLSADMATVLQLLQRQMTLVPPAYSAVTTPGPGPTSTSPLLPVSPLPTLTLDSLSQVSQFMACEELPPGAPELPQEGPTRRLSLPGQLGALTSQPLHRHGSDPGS
Protocol: Compounds were also tested for their effect to block the hERG K^+ channel.
Compounds were screened to test their activity in blocking the hERG potassium channel at AVIVA Biosciences (San Deigo, Calif., USA). The hERG channel is heterologously expressed in a CHO (Chinese Hamster Ovary) cell line. Cells were maintained with standard tissue culture procedures and stable channel expression was maintained with 500 μg/mL G418 in the culture medium. Cells were harvested for testing on the PatchXpress 7000A automated patch clamp with Accumax (Innovative Cell Technologies, San Diego, Calif.) to isolate single cells.
The following solutions were used for electrophysiological recordings. The external solution contained: 2 mM CaCl2; 2 mM MgCl2; 4 mM KCl; 150 mM NaCl; 10 mM Glucose; 10 mM HEPES (pH 7.4 with 1M NaOH; osmolarity, ˜310 mOsm). The internal solution contained: 140 mM KCl, 10 mM MgCl2, 6 mM EGTA, 5 mM HEPES, 5 mM ATP (pH adjusted to 7.25 with KOH; osmolarity, ˜295 mOsm).
hERG channels were activated when the voltage was first stepped to −50 mV for 300 ms from the −80 mV holding potential and then stepped to +20 mV for 5 seconds. At +20 mV the channels open and then largely inactivate, so the currents are relatively small. Upon returning to −50 mV from +20 mV, hERG currents transiently become much larger as inactivation is rapidly removed and then the channel closes. The first step to −50 mV for 300 ms was used as a baseline for measuring the peak amplitude during the step to −50 mV after channel activation. The peak tail current at −50 mV was measured both under control conditions and after addition of compound, each cell serving as its own control.
All compounds were prepared as 10 mM DMSO stocks in glass vials. Stock solutions were mixed by vigorous vortexing and sonication for about 2 minutes at room temperature. For testing, compounds were diluted in glass vials using an intermediate dilution step in pure DMSO and then further diluted to working concentrations in external solution. Dilutions were prepared no longer than 20 minutes before use.
For the electrophysiological recordings, after achieving the whole-cell configuration, cells were monitored for 90 seconds to assess stability and washed with external solution for 66 seconds. The voltage protocol described above was then applied to the cells every 12 seconds and throughout the whole procedure. Only cells with stable recording parameters and meeting specified health criteria were allowed to enter the compound addition procedure.
External solution containing 0.1% DMSO (vehicle) was applied to the cells first to establish the control peak current amplitude. After allowing the current to stabilize for 3 to 5 minutes, 1 μM and then 10 μM test compounds were applied. Each compound concentration was added 4 times and cells were kept in test solution until the effect of the compound reached steady state or for a maximum of 12 minutes. After addition of test compound, a positive control (1 μM Cisapride) was added and must block >95% of the current for the experiment to be considered valid. Washout in the external solution compartment was performed until the recovery of the current reached steady state.

[3] = Microsomal stability assay, dog; format: in vitro ADME; conditions: metabolic stability, dog liver microsomes 0.5 mg/mL, substrate 3 uM
Summary of the method: as §1

[4] = target: wild-type human cardiac sodium channel, hNav1.5 (late INa) (Homo sapiens, UniProt Q14524); assay: Late INa screening assay (QPatch whole cell patch clamp); format: cell-based
wild-type human cardiac sodium channel, hNav1.5 (late INa), sequence (Q14524 whole entry): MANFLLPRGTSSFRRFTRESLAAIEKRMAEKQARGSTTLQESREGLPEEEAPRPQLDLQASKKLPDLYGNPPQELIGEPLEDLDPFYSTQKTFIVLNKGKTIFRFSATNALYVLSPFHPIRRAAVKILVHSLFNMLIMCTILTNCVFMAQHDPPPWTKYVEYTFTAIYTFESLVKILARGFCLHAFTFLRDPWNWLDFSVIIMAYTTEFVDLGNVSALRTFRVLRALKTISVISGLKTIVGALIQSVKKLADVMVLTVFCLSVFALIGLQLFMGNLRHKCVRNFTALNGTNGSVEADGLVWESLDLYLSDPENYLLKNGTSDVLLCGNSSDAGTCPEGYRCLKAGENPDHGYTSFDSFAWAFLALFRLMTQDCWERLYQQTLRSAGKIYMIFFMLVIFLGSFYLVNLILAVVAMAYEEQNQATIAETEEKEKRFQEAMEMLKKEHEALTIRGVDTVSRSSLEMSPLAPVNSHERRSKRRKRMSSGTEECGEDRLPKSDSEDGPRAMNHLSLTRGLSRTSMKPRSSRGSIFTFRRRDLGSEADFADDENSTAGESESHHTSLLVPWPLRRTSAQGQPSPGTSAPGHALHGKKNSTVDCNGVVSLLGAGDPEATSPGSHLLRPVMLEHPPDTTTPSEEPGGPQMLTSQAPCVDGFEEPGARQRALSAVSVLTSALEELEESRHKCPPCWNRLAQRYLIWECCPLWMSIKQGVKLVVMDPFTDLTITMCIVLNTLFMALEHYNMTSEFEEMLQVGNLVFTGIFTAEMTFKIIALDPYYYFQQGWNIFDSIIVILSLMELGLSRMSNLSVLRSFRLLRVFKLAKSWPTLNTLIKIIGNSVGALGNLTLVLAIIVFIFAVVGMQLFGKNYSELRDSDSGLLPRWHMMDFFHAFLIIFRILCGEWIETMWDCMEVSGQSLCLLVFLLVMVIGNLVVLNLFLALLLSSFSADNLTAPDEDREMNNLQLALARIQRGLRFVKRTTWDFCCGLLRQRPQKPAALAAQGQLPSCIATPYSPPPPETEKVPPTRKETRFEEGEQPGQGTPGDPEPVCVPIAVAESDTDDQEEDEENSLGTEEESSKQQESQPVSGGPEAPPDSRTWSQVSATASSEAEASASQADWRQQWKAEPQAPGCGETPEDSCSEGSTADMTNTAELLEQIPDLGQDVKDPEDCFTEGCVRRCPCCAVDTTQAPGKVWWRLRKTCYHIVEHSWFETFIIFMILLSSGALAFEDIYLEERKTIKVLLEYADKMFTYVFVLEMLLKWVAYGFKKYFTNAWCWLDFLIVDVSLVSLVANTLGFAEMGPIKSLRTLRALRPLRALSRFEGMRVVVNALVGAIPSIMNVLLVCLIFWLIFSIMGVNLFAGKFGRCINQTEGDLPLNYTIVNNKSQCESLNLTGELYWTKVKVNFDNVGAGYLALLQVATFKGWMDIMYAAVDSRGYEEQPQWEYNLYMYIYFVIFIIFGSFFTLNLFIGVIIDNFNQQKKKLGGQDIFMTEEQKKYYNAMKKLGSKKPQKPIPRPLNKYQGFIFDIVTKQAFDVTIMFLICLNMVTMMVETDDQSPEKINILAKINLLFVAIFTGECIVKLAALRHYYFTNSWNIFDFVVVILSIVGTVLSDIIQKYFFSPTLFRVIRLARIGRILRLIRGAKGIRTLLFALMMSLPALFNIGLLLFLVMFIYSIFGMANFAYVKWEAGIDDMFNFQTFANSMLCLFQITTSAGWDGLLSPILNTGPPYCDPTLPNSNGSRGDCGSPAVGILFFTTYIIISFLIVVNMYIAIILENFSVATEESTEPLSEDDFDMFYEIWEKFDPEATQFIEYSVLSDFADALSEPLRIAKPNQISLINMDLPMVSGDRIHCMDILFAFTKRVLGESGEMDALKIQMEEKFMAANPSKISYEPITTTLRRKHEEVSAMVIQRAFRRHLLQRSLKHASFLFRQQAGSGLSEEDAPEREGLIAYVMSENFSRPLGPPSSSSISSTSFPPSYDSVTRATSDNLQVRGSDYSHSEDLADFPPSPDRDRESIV
Summary of the method: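 HEK293 cells stably expressing hNav1.5 alpha subunit without beta subunits, QPatch automated whole-cell clamp at 23-25° C, CsF-based internal solution pH 7.4. Late INa induced by 10 μM tefluthrin; 250 ms steps to −20 mV from −120 mV at 0.1 Hz, compounds at 1 μM. Percent block of mean current 225–250 ms into the step.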

[5] = Microsomal stability assay, rat; format: in vitro ADME; conditions: metabolic stability, rat liver microsomes 0.5 mg/mL, substrate 3 uM
Summary of the method: as §1

[6] = target: T1, Human Nav1.2 (Homo sapiens, UniProt Q99250); assay: Nav1.2 use-dependent block, whole-cell voltage clamp; format: cell-based; conditions: use-dependent block 10 Hz, read-out: NAv1.2*-CHAN TEST-UDB-10 HZ-
T1 construct: expressed in transfected cells
T1 sequence (Q99250 whole entry): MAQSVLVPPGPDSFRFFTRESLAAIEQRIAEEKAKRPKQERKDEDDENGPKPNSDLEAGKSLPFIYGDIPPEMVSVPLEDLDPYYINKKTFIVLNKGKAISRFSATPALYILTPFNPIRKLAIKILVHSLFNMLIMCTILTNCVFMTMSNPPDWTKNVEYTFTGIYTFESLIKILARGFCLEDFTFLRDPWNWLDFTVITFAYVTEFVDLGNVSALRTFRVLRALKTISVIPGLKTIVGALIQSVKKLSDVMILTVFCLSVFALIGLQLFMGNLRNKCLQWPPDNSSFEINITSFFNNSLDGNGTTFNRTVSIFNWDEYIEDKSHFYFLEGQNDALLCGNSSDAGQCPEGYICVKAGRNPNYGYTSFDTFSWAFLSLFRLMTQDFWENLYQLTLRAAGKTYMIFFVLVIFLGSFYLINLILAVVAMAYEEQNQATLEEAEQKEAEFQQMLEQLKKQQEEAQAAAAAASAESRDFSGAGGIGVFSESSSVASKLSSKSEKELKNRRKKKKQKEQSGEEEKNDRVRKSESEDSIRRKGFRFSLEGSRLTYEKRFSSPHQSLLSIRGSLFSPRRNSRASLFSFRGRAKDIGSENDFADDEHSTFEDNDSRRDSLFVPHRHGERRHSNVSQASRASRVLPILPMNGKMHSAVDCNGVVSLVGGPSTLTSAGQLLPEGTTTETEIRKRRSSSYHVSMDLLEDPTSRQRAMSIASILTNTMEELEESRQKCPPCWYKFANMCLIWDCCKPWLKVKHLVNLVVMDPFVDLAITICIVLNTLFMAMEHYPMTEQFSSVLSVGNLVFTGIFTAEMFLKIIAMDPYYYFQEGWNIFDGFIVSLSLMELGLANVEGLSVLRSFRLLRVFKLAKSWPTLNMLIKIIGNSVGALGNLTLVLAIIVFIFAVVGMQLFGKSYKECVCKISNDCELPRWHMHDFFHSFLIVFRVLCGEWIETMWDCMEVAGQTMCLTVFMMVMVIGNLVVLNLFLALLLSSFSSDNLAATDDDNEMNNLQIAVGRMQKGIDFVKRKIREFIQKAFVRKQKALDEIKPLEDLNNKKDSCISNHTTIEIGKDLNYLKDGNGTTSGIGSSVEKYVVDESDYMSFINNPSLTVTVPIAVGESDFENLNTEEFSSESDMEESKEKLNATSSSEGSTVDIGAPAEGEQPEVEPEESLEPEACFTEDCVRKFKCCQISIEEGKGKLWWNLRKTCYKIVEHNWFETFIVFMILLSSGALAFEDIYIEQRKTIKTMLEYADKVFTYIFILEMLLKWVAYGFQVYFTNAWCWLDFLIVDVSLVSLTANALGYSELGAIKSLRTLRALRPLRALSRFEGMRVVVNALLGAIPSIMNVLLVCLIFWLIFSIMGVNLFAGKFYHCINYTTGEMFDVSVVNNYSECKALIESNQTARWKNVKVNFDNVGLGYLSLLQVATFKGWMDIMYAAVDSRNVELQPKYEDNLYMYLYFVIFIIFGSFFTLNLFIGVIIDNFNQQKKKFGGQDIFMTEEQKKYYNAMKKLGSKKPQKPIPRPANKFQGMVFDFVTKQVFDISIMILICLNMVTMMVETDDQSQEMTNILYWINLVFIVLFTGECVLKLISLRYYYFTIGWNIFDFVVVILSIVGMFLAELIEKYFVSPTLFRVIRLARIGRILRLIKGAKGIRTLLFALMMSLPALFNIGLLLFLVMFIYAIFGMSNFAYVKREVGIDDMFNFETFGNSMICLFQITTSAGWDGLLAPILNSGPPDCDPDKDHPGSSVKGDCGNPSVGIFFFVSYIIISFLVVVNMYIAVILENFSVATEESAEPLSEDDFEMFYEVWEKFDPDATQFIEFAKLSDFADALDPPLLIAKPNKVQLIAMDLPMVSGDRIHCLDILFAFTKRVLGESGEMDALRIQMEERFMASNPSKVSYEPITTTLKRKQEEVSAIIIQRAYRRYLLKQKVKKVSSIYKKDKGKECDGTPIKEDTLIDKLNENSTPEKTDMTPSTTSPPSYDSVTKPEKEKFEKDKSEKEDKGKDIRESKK
Description: Wild-type (WT) cDNA stably transfected in Chinese hamster ovary (CHO) cells is used to record INa. Unless otherwise noted, all reagents are purchased from Sigma-Aldrich (St Louis, Mo., U.S.A.).
Whole-cell voltage-clamp recordings are used to measure the biophysical properties of WT. Briefly, the pipette solution consists of (in mM) 110 CsF, 10 NaF, 20 CsCl, 2 EGTA, 10 HEPES, with a pH of 7.35 and osmolarity of 300 mOsmol/kg. The bath (control) solution contains in (mM): 145 NaCl, 4 KCl, 1.8 CaCl2, 1 MgCl2, 10 dextrose, 10 HEPES, with a pH of 7.35 and osmolarity of 310 mOsmol/kg. Cells are allowed to stabilize for 10 min after establishment of the whole-cell configuration before current is measured. Series resistance is compensated 90% to assure that the command potential is reached within microseconds with a voltage error <2 mV. Leak currents are subtracted by using an online P/4 procedure and all currents are low-pass Bessel filtered at 5 kHz and digitized at 50 kHz.
Tonic block of peak current is measured using a step to −10 mV (20 ms) from a holding potential of −120 mV (0.2 Hz). Use-dependent block of peak current is measured during pulse number 300 of a pulse train (−10 mV, 5 ms, 300 pulses, 10 Hz or 25 Hz) from a holding potential of −120 mV. Two sequential pulse train stimulations are averaged to obtain mean current traces for each recording condition, which are then used for offline subtraction and analysis.
For use-dependent studies, cells are stimulated with depolarizing pulse trains (−10 mV, 5 ms, 300 pulses, 10 and 25 Hz) from a holding potential of −120 mV. Currents are then normalized to the peak current recorded in response to the first pulse in each frequency train. For tonic block studies, peak current is evaluated in response to a 20 ms depolarization to −10 mV (0.2 Hz). Data analysis is performed using Clampfit 9.2 (Axon Instruments, Union City, Calif., U.S.A), Excel 2002 (Microsoft, Seattle, Wash., U.S.A.), and OriginPro 7.0 (OriginLab, Northampton, Mass., U.S.A) software. Results are presented as mean±SEM.
A stock solution of 10 mM compound of Formula I is prepared in 0.1 M HCl or DMSO. A fresh dilution of the compound of Formula I in the bath solution is prepared every experimental day and the pH is readjusted to 7.35 as necessary. The final DMSO concentration was kept at 0.1% in all solutions. Direct application of the perfusion solution to the clamped cell is achieved using the Perfusion Pencil system (Automate, Berkeley, Calif.). Direct cell perfusion is driven by gravity at a flow rate of 350 μL/min using a 250 micron tip. This system sequesters the clamped cell within a perfusion stream and enables complete solution exchange within 1 second. The clamped cell is perfused continuously starting immediately after establishing the whole-cell configuration. Control currents are measured during control solution perfusion.
Solutions are perfused for three minutes prior to current recordings to allow equilibrium (tonic) drug block. Tonic block of peak currents is measured from this steady-state condition. Three sequential current traces are averaged to obtain a mean current for each recording. The mean current traces are utilized for offline analysis. Use-dependent block of peak current is measured during pulse number 300 of the pulse train, (−10 mV, 5 ms, 300 pulses, 10 Hz) from a holding potential of −120 mV. Two sequential pulse train stimulations are averaged to obtain mean current traces for each recording condition, which are then used for offline subtraction and analysis. Where appropriate, concentration inhibition curves are fit with the Hill equation: I/Imax=1/[1+10̂(log IC50−I)*k], where IC50 is the concentration that produces half inhibition and k is the Hill slope factor.

[7] = target: T2, hNav1.1 (Homo sapiens, UniProt P35498); assay: Nav1.1 use-dependent block, whole-cell voltage clamp; format: cell-based; conditions: use-dependent block 10 Hz, read-out: NAv1.1*-CHAN TEST-UDB-10 HZ-
T2 construct: expressed in transfected cells; host or cells: HEK293, transient transfection (α1:β1:β2 = 10:1:1)

[8] = % inhibition at 1 μM, read-out: NAv1.5*-LATE-
[9] = percent block of late INa, compound at 1 μM, 10 μM Tefluthrin, HEK293 hNav1.5, read-out: Late INa 1 μM

## O=c1c2cc(-c3ccc(OC(F)(F)F)cc3)ccc2cnn1Cc1ncc(Cl)cn1 [III-35, 2-((5-chloropyrimidin-2-yl)methyl)-7-(4-(trifluoromethoxy)phenyl)phthalazin-1 (2H)-one]
[1]
  MS Human THalf: > 395 min
[2]
  HERG*: 17%
[3]
  MS Dog THalf: 85 min
[4]; [8]
  inhibition at 1 µM: 38%
[4]; [9]
  inhibition at 1 µM: 38%
[5]
  MS Rat THalf: 296 min

## Cc1noc(Cn2ncc3ccc(-c4ccc(OC(F)(F)F)cc4)cc3c2=O)n1 [III-2, 2-((3-methyl-1,2,4-oxadiazol-5-yl)methyl)-7-(4-(trifluoromethoxy)phenyl)phthalazin-1(2H)-one]
[6]
  inhibition at 1 µM: 5%
[1]
  MS Human THalf: 333 min
[7]
  inhibition at 1 µM: 27.6%
[3]
  MS Dog THalf: 68 min
[4]; [8]
  inhibition at 1 µM: 40%
[4]; [9]
  inhibition at 1 µM: 40%
[5]
  MS Rat THalf: 222 min

## O=c1c2cc(-c3ccc(OC(F)(F)F)cc3)ccc2nnn1CCOc1nccc(-c2noc(C3CC3)n2)n1 [II-60, 3-(2-(4-(5-cyclopropyl-1,2,4-oxadiazol-3-yl)pyrimidin-2-yloxy)ethyl)-6-(4-(trifluoromethoxy)phenyl)benzo[d][1,2,3]triazin-4(3H)-one]
[1]
  MS Human THalf: 362 min
[2]
  HERG*: 31%
[3]
  MS Dog THalf: 356 min
[4]; [8]
  inhibition at 1 µM: 32%
[4]; [9]
  inhibition at 1 µM: 32%
[5]
  MS Rat THalf: > 395 min

## O=c1c2cc(-c3ccc(OC(F)(F)F)cc3)ccc2nnn1Cc1nnc(C2CC2)s1 [II-66, 3-((5-cyclopropyl-1,3,4-thiadiazol-2-yl)methyl)-6-(4-(trifluoromethoxy)phenyl)benzo[d][1,2,3]triazin-4(3H)-one]
[1]
  MS Human THalf: > 395 min
[2]
  HERG*: 23%
[3]
  MS Dog THalf: > 395 min
[4]; [8]
  inhibition at 1 µM: 39%
[4]; [9]
  inhibition at 1 µM: 39%
[5]
  MS Rat THalf: 181 min
